Test results from publication PMC8007387 (Clinical Pharmacokinetics, 2021).
Like-named read-outs stand apart in the source and are kept apart here.

Key:
[1] = in vivo; cited from earlier work
[2] = clinical; details: male, human, in vivo
[3] = test system: QTcF interval; details: in vivo
[4] = male, human, in vivo
[5] = clinical; details: both, human, in vivo
[6] = in vivo, cited from earlier work
[7] = Sprague-Dawley, rat, in vivo, iv, 10 mg/kg
[8] = human, plasma; cited from earlier work
[9] = test system: pregnane X receptor; details: cited from earlier work
[10] = monkey, in vivo
[11] = test system: OATP1B3; details: cited from earlier work
[12] = in vivo; details: rhesus monkey, iv
[13] = test system: cytochrome P450 (CYP) 3A; details: cited from earlier work
[14] = test system: CES-1, CatA and CYP3A; parameters: species or system human
[15] = test system: carboxylesterase 1; details: cited from earlier work
[16] = test system: CYP3A; details: recombinant enzyme; cited from earlier work
[17] = test system: CYP2C8; details: recombinant enzyme; cited from earlier work
[18] = test system: CYP3A4; details: cited from earlier work
[19] = test system: cathepsin A; details: cited from earlier work
[20] = test system: aryl hydrocarbon receptor; details: cited from earlier work
[21] = human; cited from earlier work
[22] = test system: MATE1; details: cited from earlier work
[23] = both, human, in vivo
[24] = test system: CYP2D6; details: recombinant enzyme; cited from earlier work
[25] = test system: MERS-CoV; details: rhesus monkey, in vivo; cited from earlier work
[26] = test system: OATP1B1; details: cited from earlier work
[27] = test system: OATP1B1; details: cited from earlier work; remark: listed apart in the source
[28] = human, in vivo
[29] = test system: P-glycoprotein; details: cited from earlier work

In the case of `N#C[C@@]1(c2ccc3c(N)ncnn23)O[C@H](CO)[C@@H](O)[C@H]1O` [GS-441524], the “dose recovered in urine as this analyte” value [1] is listed as 48.6%, the CL renal ([2]; estimated secretory clearance CLr,s) is listed as 31 mL/min and the Tmax ([2]; iv) is listed as 3 h. For the same compound, the CL renal ([2]; renal clearance CLr) was 151 mL/min, the QTcF interval prolongation [3] was “do not cause QTcF interval prolongation” and the “secretory clearance as share of CLr” value [4] was 21 % of CLr. It also gave an AUC ([5]; 100 mg) of 2230 ng·h/mL, a Cmax ([5]; 100 mg) of 145 ng/mL and a Tmax ([5]; 100 mg) of 1.51 h. For the same compound, the half-life ([5]; 100 mg, t1/2, median (Q1, Q3)) was 1640 min, the AUC(0-t) ([5]; 200 mg) was 2190 ng·h/mL and the Cmax ([5]; 200 mg) was 143 ng/mL. The Tmax ([5]; 200 mg) was 2 h, the t1/2 ([6]; 150 mg) was ~ 24.5 h and the “dose dependence of PK” value ([6]; iv) was “linear pharmacokinetics”. For the same compound, the accumulation in plasma [6] was “approximately 1.9 fold”, the “steady state reached by day” value [6] was 4 days and the “steady state reached on day” value [6] was 4 days.

In the case of `CCC(CC)COC(=O)[C@H](C)N[P@](=O)(OC[C@H]1O[C@@](C#N)(c2ccc3c(N)ncnn23)[C@H](O)[C@@H]1O)Oc1ccccc1` [RDV, 2-ethylbutyl N-{(S)-[2-C(4-aminopyrrolo[2,1-f][1,2,4]triazin-7-yl)-2-5-anhydro-d-altrononitril-6-O-yl]phenoxyphosphoryl}-L-alaninate], the “administered radioactivity excreted in feces” value [7] is reported as 27.8%, the “administered radioactivity excreted in urine” value [7] is reported as 63.0% and the “time within which most of the radioactivity was excreted” value [7] is reported as ≤ 48 h. The “protein binding (bound)” value [8] was 88–93.6%, the “induction of enzymes or transporters via pregnane X receptor” value [9] was “no potential for induction” and the “administered radioactivity recovered in feces” value [10] was 25.6%. For the same compound, the “administered radioactivity recovered in urine” value [10] was 33.6%, the “inhibition of OATP1B3” value [11] was “weak inhibitor” and the AUC(0-t) [12] was 1430 ng·h/mL. The Cmax [12] was 3350 ng/mL, the “CYP-dependent hepatic metabolism, share of total hepatic clearance” value [13] was 10% and the “contribution to total metabolism” value [13] was 10%. The extraction ratio [14] was 0.6–0.8, the “contribution to total metabolism” value [15] was 80% and the “metabolism by CYP3A” value [16] was “can be metabolized”. The “dose recovered in urine as this analyte” value [1] was 10.3%, the clearance [2] was 1170 mL/min and the half-life ([2]; iv, 150 mg) was ~60 min. The CL renal ([2]; renal clearance CLr) was 129 mL/min, the “metabolism by CYP2C8” value [17] was “can be metabolized” and the “upper bound of two-sided 90% CI of predicted mean ΔΔQTcF” value ([3]; human) was < 10 ms. The QTcF interval prolongation [3] was “do not cause QTcF interval prolongation”, the “inhibition of CYP3A4” value [18] was “weak inhibitor” and the “contribution to total metabolism” value [19] was 10%. The “induction of enzymes or transporters via aryl hydrocarbon receptor” value [20] was “no potential for induction”, the “mean whole blood/plasma concentration ratio” value [21] was 0.76 and the “inhibition of MATE1” value [22] was “weak inhibitor”. The “median time of occurrence of maximum observed plasma concentration” value [23] was ~ 0.7 h, the “blood-to-plasma ratio of [14C]-radioactivity” value [4] was 0.68 and the “mean total recovery of the radioactive dose” value [4] was > 92%. The “radioactive dose recovered in feces” value [4] was ~18%, the “radioactive dose recovered in urine” value [4] was “approximately 74%” and the “metabolism by CYP2D6” value [24] was “can be metabolized”. The AUC ([5]; 100 mg) was 1590 ng·h/mL, the Cmax ([5]; 100 mg) was 2230 ng/mL and the Tmax ([5]; 100 mg) was 0.68 h. The clearance ([5]; 100 mg, CLss, mean (%CV)) was ~1080 mL/min, the half-life ([5]; 100 mg, t1/2, median (Q1, Q3)) was 57.6 min and the AUC(0-t) ([5]; 200 mg) was 2860 ng·h/mL. It also gave a Cmax ([5]; 200 mg) of 4380 ng/mL, a Tmax ([5]; 200 mg) of 0.67 h and a half-life ([5]; 200 mg, t1/2, median (Q1, Q3)) of 54 min. For the same compound, the AUC ([5]; iv) was 1590 ng·h/mL, the half-life ([5]; median t1/2) was ~60 min and the “lung viral loads lower in each lung lobe” value [25] was 2.5–4 logs. The “lung viral loads versus vehicle-treated animals” value [25] was “lower when all lung lobes were combined”, the “prophylactic efficacy versus vehicle-treated animals” value [25] was “significant reduction in clinical scores, clinical signs of respiratory disease, and viral RNA levels” and the “inhibition of OATP1B1” value [26] was “weak inhibitor”. The “substrate for OATP1B1” value [27] was “substrate”, the accumulation [6] was “lack of accumulation” and the “graded ALT abnormalities” value ([28]; both) was “eight participants with Grade 1 and 1 subject with Grade 2 ALT abnormalities”. For the same compound, the “infusion-site phlebitis, participants” value ([28]; both) was 40%, the “serious AEs, Grade 3 or 4 AEs, deaths” value ([28]; both) was “no serious AEs, Grade 3 or 4 AEs, or deaths” and the “graded ALT abnormalities” value [28] was “no graded alanine aminotransferase (ALT) abnormalities”. The overall tolerability [28] was “generally well tolerated”, the “transient Grade 1 AST abnormalities” value [28] was “four of the nine participants with graded ALT abnormalities” and the “substrate for P-glycoprotein” value [29] was “substrate”.
